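Interpolation was linear, between the two tested concentrations surrounding the appropriate level; five concentrations were tested over 48 hours in 96-well plates. The concentration for full growth arrest is given as TGI.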
Assays:
Test in all cases: NCI-60 cell line screen, 48 h
[1] = test system: HCT-116 colon
[2] = test system: SK-OV-3 ovarian
[3] = test system: NCI-H226 lung
[4] = test system: A498 renal
[5] = test system: HT29 colon
[6] = test system: KM12 colon
[7] = test system: T-47D breast
[8] = test system: COLO 205 colon
[9] = test system: HS 578T breast
[10] = test system: K-562 leukemia
[11] = test system: ACHN renal
[12] = test system: HOP-62 NSCLC
[13] = test system: 786-0 renal
[14] = test system: DU-145 prostate
[15] = test system: MDA-MB-231 breast
[16] = test system: IGROV1 ovarian
[17] = test system: OVCAR-4 ovarian
[18] = test system: MOLT-4 leukemia
[19] = test system: NCI-H522 lung
[20] = test system: RXF 393 renal
[21] = test system: UACC-257 melanoma
[22] = test system: UO-31 renal
[23] = test system: MDA-MB-435
[24] = test system: M14 melanoma
[25] = test system: SNB-75 CNS
[26] = test system: TK-10 renal
[27] = test system: SF-295 CNS
[28] = test system: OVCAR-8 ovarian
[29] = test system: NCI-H23 lung
[30] = test system: MDA-N
[31] = test system: SK-MEL-28 melanoma
[32] = test system: U251 CNS
[33] = test system: CCRF-CEM leukemia
[34] = test system: SW-620 colon
[35] = test system: LOX IMVI melanoma
[36] = test system: SF-268 CNS
[37] = test system: SK-MEL-2 melanoma
[38] = test system: SN12C renal
[39] = test system: BT-549 breast
[40] = test system: PC-3 prostate
[41] = test system: UACC-62 melanoma
[42] = test system: HCT-15 colon
[43] = test system: A549 NSCLC
[44] = test system: EKVX NSCLC
[45] = test system: CAKI-1 renal
[46] = test system: SK-MEL-5 melanoma
[47] = test system: NCI/ADR-RES ovarian
[48] = test system: OVCAR-5 ovarian
[49] = test system: MALME-3M melanoma
[50] = test system: SNB-19 CNS
[51] = test system: HOP-92 NSCLC
[52] = test system: SR leukemia
[53] = test system: OVCAR-3 ovarian
[54] = test system: RPMI-8226 leukemia
[55] = test system: NCI-H460 lung
[56] = test system: SF-539 CNS
[57] = test system: MCF7 breast
[58] = test system: HL-60(TB) leukemia
[59] = test system: HCC-2998 colon

Measured: TGI

CC(C)(C)/C(O)=C\c1nc2ccc(C(F)(F)F)cc2[nH]c1=O
> 100 µM: [1] | [2] | [3] | [4] | [5] | [6] | [7] | [8] | [9] | [10] | [11] | [12] | [13] | [14] | [15] | [16] | [17] | [18] | [19] | [20] | [21] | [22] | [23] | [24] | [25] | [26] | [27] | [28] | [29] | [30] | [31] | [32] | [33] | [34] | [35] | [36] | [37] | [38] | [39] | [40] | [41] | [42] | [43] | [44] | [45] | [46] | [47] | [48] | [49] | [50] | [51] | [52] | [53] | [54]

CC(C)C(=O)OCN(C)c1nc(N(C)COC(=O)C(C)C)nc(N(C)COC(=O)C(C)C)n1
57.7 µM: [15]
39.1 µM: [35]
41.2 µM: [29]
61.9 µM: [25]
44.5 µM: [31]
99.6 µM: [11]
32.2 µM: [23]
89.6 µM: [34]
49.8 µM: [37]
28.4 µM: [46]
52.5 µM: [22]
95.3 µM: [48]
93.2 µM: [27]
45.5 µM: [28]
54.2 µM: [55]
48.9 µM: [58]
53.9 µM: [56]
66.3 µM: [5]
36 µM: [19]
43.9 µM: [6]
46.2 µM: [30] | [39]
58.1 µM: [18]
> 100 µM: [1] | [3] | [4] | [7] | [10] | [12] | [14] | [57] | [26] | [38] | [40] | [43] | [44] | [45] | [47] | [50] | [53] | [54]
50.5 µM: [52]
38.2 µM: [21]
51.3 µM: [8]
70.5 µM: [33]
58.3 µM: [17]
49.1 µM: [9]
51 µM: [42]
33 µM: [24]
65.2 µM: [13]

CCOC(=O)O/C(=C\c1ccc(OC)cc1)c1c(OC(=O)OCC)n(C(=O)OCC)c2ccccc12
77.6 µM: [15]
> 100 µM: [1] | [3] | [5] | [6] | [7] | [8] | [9] | [10] | [56] | [11] | [12] | [13] | [14] | [16] | [17] | [21] | [22] | [23] | [24] | [25] | [57] | [58] | [27] | [28] | [29] | [30] | [31] | [32] | [33] | [34] | [35] | [36] | [37] | [38] | [39] | [40] | [41] | [42] | [43] | [44] | [45] | [46] | [47] | [48] | [49] | [52] | [53]
27.3 µM: [4]
30.3 µM: [55]
67.9 µM: [20]
99.7 µM: [2]
93.7 µM: [26]

c1ccc2c(c1)nnn2CN1CCOCC1
93.1 µM: [53]
54.8 µM: [52]
> 100 µM: [1] | [3] | [4] | [55] | [5] | [6] | [7] | [9] | [10] | [11] | [12] | [13] | [15] | [16] | [17] | [18] | [19] | [20] | [21] | [22] | [23] | [24] | [26] | [27] | [28] | [29] | [30] | [31] | [32] | [34] | [35] | [36] | [37] | [38] | [39] | [40] | [41] | [42] | [43] | [44] | [45] | [46] | [47] | [48] | [49] | [50] | [51]
63.6 µM: [58]

Cc1cc(OCC(=O)O)c(Cl)cc1Cl
> 100 µM: [59] | [1] | [3] | [4] | [55] | [5] | [6] | [7] | [9] | [10] | [11] | [12] | [13] | [14] | [15] | [16] | [17] | [18] | [19] | [20] | [21] | [22] | [23] | [24] | [58] | [26] | [27] | [28] | [29] | [30] | [31] | [32] | [34] | [35] | [36] | [37] | [38] | [39] | [40] | [41] | [42] | [43] | [44] | [45] | [46] | [47] | [48] | [49] | [50] | [51] | [52] | [53] | [54]

Reference: PubChem BioAssay (NCI)
